Experimental data as given in patent US9359378B2, “Substituted oxazolo[3,4-a]pyrazines as pharmaceutcals” (BIOLAB SANUS FARMACÊUTICA LTDA., priority 2014, dated 2016).

Assays:
Format in all cases: biochemical
Details in all cases: human recombinant enzyme (Sf9); FIGS. 14 and 15; test concentration not given
PDE2A1 = molecular target: T1, PDE2A1 (Homo sapiens, UniProt O00408); test: PDE2A1 enzyme inhibition (HTRF, cAMP substrate)
T1 construct: host or cells: Sf9
Source text: (§1) The effects of the BL-230 and BL-236 compounds on the activity of the human enzymes PDE2A1, PDE3A, PDE4A1A, PDE4B1, PDE7A, PDE8A1, and PDE10A2 and PDE11A4 were quantified by measuring the production of adenosine 5′-monophosphate (5′AMP) from cyclic adenosine monophosphate (cAMP), with human recombinant enzyme expressed in Sf9 cells and the detection method was by using HTRF®.
(§2) The test compound, the reference compound or water (control) were mixed with the enzyme (the enzymes and their amounts used are described in Table 1) in a buffer containing 44.4 mM Tris-HCl, 5.28 mM MgCl2, 2.64 mM DTT and 0.044% Tween® 20 (pH 7.8). Then, the reaction was initiated by the addition of 40 nM of cAMP substrate and the mixture was incubated for 30 minutes at room temperature. For basal control measurements, the enzyme was omitted from the reaction mixture. The fluorescence acceptor (Dye2 labeled cAMP) and fluorescence donor (anti-cAMP antibody labeled with europium cryptate) were added in the presence of 1 mM IBMX. After 60 minutes, the fluorescence corresponding to the amount of transfer residual cAMP was measured at λex=337 nm, λem=620 nm and λem=665 nm using a microplate reader (RubyStar, BMG). The enzyme activity was determined by the signal division measured at 665 nm, by the measured signal at 620 nm (right). The results were expressed as a inhibition percentage of the control enzyme activity. […]

PDE3A = molecular target: T2, PDE3A (Homo sapiens, UniProt Q14432); test: PDE3A enzyme inhibition (HTRF, cAMP substrate)
T2 construct: host or cells: Sf9
T2 sequence (Q14432 whole entry): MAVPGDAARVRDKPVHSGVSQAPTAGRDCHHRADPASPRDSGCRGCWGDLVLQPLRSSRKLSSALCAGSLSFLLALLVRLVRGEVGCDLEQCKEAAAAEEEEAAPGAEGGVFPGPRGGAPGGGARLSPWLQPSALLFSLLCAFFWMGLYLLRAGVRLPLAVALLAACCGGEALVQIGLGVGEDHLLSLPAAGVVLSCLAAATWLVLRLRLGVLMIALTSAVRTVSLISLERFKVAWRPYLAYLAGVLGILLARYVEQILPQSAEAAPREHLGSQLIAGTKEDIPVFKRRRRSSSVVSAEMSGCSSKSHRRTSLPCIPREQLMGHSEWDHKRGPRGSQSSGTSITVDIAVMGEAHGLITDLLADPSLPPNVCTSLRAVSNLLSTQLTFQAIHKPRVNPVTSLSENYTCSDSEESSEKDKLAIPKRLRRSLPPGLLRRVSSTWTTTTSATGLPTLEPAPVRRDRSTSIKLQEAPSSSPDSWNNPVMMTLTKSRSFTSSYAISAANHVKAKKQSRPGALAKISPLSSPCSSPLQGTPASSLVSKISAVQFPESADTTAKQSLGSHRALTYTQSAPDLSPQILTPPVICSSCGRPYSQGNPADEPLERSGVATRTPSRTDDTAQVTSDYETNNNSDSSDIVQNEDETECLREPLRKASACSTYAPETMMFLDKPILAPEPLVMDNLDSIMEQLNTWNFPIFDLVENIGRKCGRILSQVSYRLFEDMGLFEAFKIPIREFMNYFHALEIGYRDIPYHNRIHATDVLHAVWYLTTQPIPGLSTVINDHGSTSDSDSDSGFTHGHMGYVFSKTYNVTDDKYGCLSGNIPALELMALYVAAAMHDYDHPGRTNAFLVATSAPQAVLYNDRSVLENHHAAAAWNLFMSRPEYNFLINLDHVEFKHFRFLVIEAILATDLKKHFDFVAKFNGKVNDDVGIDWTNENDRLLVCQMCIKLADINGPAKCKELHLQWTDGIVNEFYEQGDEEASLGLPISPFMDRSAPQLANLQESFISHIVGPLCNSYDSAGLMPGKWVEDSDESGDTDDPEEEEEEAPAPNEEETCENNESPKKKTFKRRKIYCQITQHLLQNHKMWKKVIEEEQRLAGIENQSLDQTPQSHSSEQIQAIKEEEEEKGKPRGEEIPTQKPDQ
Source text: as §1, §2

PDE3B = molecular target: T3, PDE3B (Homo sapiens, UniProt Q13370); test: PDE3B enzyme inhibition (HTRF, cAMP substrate)
T3 construct: host or cells: Sf9
T3 sequence (Q13370 whole entry): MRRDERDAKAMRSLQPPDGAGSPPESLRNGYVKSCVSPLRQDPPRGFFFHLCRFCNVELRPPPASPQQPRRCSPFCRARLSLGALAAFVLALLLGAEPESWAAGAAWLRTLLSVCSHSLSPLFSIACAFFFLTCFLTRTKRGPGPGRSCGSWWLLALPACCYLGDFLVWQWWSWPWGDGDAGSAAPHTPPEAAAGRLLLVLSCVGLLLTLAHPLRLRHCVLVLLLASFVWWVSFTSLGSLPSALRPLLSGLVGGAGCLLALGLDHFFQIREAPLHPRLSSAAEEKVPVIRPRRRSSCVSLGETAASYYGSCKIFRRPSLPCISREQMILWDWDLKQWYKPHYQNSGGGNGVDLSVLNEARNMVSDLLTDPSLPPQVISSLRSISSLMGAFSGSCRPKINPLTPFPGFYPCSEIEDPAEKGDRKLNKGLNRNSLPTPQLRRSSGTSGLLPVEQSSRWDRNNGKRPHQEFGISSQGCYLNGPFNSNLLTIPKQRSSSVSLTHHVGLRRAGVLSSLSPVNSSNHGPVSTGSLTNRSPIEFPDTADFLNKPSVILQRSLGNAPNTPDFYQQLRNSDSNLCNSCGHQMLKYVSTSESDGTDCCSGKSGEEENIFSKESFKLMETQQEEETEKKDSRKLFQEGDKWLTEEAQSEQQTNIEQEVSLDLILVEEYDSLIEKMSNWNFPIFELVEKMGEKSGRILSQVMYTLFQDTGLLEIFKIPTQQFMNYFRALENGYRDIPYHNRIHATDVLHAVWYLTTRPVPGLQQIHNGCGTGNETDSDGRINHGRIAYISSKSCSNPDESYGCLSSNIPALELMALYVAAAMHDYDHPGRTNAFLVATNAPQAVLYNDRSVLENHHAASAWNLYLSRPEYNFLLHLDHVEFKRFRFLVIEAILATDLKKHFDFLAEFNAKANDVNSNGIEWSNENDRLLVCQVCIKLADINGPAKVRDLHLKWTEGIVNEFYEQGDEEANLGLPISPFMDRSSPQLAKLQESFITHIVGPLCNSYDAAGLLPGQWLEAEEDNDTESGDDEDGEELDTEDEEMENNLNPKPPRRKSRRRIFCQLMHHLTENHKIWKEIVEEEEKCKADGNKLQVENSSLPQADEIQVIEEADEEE
Method: The effects of compounds BL-230 and BL-236 on human PDE3B enzyme activity was quantified by measuring the production of 5′AMP from CAMP using human recombinant enzyme expressed in Sf9 cells and the detection method was by using HTRF®.
The test compound, the reference compound or water (control) were mixed with 0.7 U of the enzyme PDE3B in a buffer containing 50 mM Tris-HCl, 6 mM MgCl2, 3 mM DTT and 0.05% Tween® 20 (pH 7.8). Then, the reaction was initiated by addition of 40 nM of cAMP substrate and the mixture was incubated for 30 minutes at 22° C. For basal control measurements, the enzyme was omitted from the reaction mixture. The fluorescence acceptor (Dye2 labeled cAMP) and fluorescence donor (anti-cAMP antibody labeled with europium cryptate) were added in the presence of 1 mM IBMX. After 60 minutes, the transfer of fluorescence corresponding to the amount of residual cAMP was measured at λex=337 nm, λem=620 nm and λem=665 nm using a microplate reader (RubyStar, BMG). The enzyme activity was determined by the signal division measured at 665 nm, by the signal measured at 620 nm (right). The results were expressed as an inhibition percentage of the control enzyme activity. The standard inhibitory reference compound milrinone was used, which was tested in each experiment at several concentrations to obtain an inhibition curve from which its IC50 value was calculated. […]

PDE4D2 = molecular target: T4, PDE4D2 (Homo sapiens, UniProt Q08499); test: PDE4D2 enzyme inhibition (HTRF, cAMP substrate)
T4 construct: host or cells: Sf9
T4 sequence (Q08499 303-809 limits assumed): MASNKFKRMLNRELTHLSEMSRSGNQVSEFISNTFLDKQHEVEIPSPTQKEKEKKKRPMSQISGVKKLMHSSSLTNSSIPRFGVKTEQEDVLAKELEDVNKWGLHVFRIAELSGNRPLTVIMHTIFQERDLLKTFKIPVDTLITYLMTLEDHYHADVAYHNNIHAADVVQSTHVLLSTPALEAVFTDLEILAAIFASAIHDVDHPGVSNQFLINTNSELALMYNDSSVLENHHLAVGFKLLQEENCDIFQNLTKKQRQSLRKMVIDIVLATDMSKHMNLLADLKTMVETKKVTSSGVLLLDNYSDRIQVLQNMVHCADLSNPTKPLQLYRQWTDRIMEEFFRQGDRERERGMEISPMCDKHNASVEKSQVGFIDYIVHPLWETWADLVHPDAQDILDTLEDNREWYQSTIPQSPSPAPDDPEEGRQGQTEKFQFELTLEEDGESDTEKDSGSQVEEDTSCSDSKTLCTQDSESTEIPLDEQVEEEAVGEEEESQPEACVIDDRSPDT
Method: The effects of the BL-230 and BL-236 compounds on the activity of the human PDE4D2 enzyme were quantified by measuring the production from 5′ AMP cAMP using a human recombinant enzyme expressed in Sf9 cells and the method of detection used was the HTRF®.
The test compound, the reference compound or the water (control) were mixed with 0.75 U of PDE4D2 in a saline buffer solution balanced with Hanks (HBSS) (Invitrogen) supplemented, and 1.5 mM MgCl2, 0.1% bovine serum albumin (BSA). Then, the reaction was initiated by addition of 40 nM of cAMP substrate and the mixture is incubated for 15 minutes at 37° C. For basal control measurements, the enzyme was omitted from the reaction mixture. The fluorescence acceptor (Dye2 labeled cAMP) and fluorescence donor (anti-cAMP antibody labeled with europium cryptate) are added in the presence of 1 mM IBMX. After 60 minutes at room temperature, the fluorescence corresponding to the amount of transfer residual cAMP was measured at λex=337 nm, λem=620 nm and λem=665 nm using a microplate reader (Envision, Perkin Elmer). The enzyme activity was determined by the signal division measured at 665 nm, by the measured signal at 620 nm (ratio). The results were expressed as an inhibition percentage of the control enzyme activity. […]

T1 sequence (O00408 1-920 isoform O00408-2): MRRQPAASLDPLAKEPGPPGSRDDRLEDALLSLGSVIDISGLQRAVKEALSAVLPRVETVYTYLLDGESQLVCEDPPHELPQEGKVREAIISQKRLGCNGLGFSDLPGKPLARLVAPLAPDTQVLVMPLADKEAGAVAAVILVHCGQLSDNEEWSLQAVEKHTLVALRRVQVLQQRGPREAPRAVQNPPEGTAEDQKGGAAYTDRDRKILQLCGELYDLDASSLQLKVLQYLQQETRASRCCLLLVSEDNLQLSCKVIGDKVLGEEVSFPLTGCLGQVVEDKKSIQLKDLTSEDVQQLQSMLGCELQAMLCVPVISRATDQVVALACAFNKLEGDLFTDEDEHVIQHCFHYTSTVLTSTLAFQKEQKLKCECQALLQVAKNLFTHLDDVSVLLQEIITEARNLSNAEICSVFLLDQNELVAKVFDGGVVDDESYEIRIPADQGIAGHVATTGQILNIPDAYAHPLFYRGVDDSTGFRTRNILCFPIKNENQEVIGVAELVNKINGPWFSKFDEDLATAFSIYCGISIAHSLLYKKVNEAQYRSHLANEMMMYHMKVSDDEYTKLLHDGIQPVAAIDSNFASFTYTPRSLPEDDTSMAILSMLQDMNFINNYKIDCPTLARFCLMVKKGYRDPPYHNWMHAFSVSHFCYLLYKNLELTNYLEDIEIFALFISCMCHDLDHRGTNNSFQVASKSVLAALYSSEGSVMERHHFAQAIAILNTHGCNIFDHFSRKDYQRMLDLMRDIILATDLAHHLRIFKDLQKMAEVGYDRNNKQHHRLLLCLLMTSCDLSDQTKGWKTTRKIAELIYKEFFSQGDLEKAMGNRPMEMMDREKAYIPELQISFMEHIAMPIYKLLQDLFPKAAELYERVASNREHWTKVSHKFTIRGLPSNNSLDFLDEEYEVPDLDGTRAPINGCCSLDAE

| inhibition of PDE2A1 enzyme activity (PDE2A1) | inhibition of PDE3A enzyme activity (PDE3A) | inhibition of PDE3B enzyme activity (PDE3B) | inhibition of PDE4D2 enzyme activity (PDE4D2) | Structure (SMILES) |
| --- | --- | --- | --- | --- |
| did not inhibit | did not inhibit | did not inhibit | 55% | O=C1C2=C(c3c[nH]c4ccccc34)OC(c3ccc4c(c3)OCO4)N2C(=O)CN1CCO (centres unmarked) [BL-230, 3-(benzo[d][1,3]dioxol-5yl)-7-(2-hydroxyethyl)-1-(1H-indol-3-yl)-6,7-dihydro-3H-oxazolo[3,4-a]pyrazine-5,8-dione] |
| did not inhibit | did not inhibit | did not inhibit | no inhibitory effect | C[C@@H](CO)N1CC(=O)N2C(=C(c3c[nH]c4ccccc34)OC2c2ccc3c(c2)OCO3)C1=O (stereo partly drawn) [BL-236, 3-(benzo[d][1,3]dioxol-5yl)-7-((S)1-hydroxypropan-2yl)-1-(1H-indol-3-yl)-6,7-dihydro-3H-oxazolo[3,4-a]pyrazine-5,8-dione] |
